Test results as given in ChEMBL document CHEMBL1201862, “PubChem BioAssay data set” (2004).
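Compound exposure: 48 hours, 5 concentrations, 96-well plates. At the GI50, growth is halved.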 The source made the active and inactive calls. No stated cut-off is given here; in the data, active = GI50 up to about 1.1 µM and inactive = higher.

Key:
Assay in all cases: growth of human tumour cells (NCI), 48 h
KM12 = system: KM12
SN12C = system: SN12C
EKVX = system: EKVX
M14 = system: M14
HOP-92 = system: HOP-92
OVCAR-5 = system: OVCAR-5
UO-31 = system: UO-31
NCI-H460 = system: NCI-H460
HCT-15 = system: HCT-15
SK-MEL-28 = system: SK-MEL-28
A498 = system: A498
NCI-H522 = system: NCI-H522
HCC 2998 = system: HCC 2998
Malme-3M = system: Malme-3M
IGROV-1 = system: IGROV-1
NCI-H23 = system: NCI-H23
U-251 = system: U-251
DU-145 = system: DU-145

SMILES | GI50 (KM12) | GI50 (SN12C) | GI50 (EKVX) | GI50 (M14) | GI50 (HOP-92) | GI50 (OVCAR-5) | GI50 (UO-31) | GI50 (NCI-H460) | GI50 (HCT-15) | GI50 (SK-MEL-28) | GI50 (A498) | GI50 (NCI-H522) | GI50 (HCC 2998) | GI50 (Malme-3M) | GI50 (IGROV-1) | GI50 (NCI-H23) | GI50 (U-251) | GI50 (DU-145)
COc1ccc2ccccc2c1CN1CCOCCOCCN(Cc2c(OC)ccc3ccccc23)CCOCCOCC1 | > 41.7 µM (inactive) | > 69.8 µM (inactive) | > 100 µM (inactive) | 17.1 µM (inactive) | > 27.9 µM (inactive) | > 100 µM (inactive) | > 100 µM (inactive) | 25.4 µM (inactive) | > 91 µM | > 45.2 µM (inactive) | > 83.4 µM (inactive) | > 60.5 µM (inactive) | 14.8 µM (inactive) | > 45.9 µM (inactive) | > 100 µM (inactive) | > 75.3 µM (inactive) | > 93.3 µM (inactive) | 
COC1=NCc2ccccc2-c2ccccc21 | > 100 µM (inactive) | > 100 µM (inactive) |  |  |  |  | 20.2 µM (inactive) | > 100 µM (inactive) | > 100 µM | > 100 µM (inactive) |  | > 100 µM (inactive) |  | > 100 µM (inactive) |  | > 100 µM (inactive) | > 100 µM (inactive) | 
CN(C)NC(=O)NC12CC3CC(CC(C3)C1)C2 | > 100 µM (inactive) | > 100 µM (inactive) | > 100 µM (inactive) |  | > 100 µM (inactive) | > 100 µM (inactive) | > 100 µM (inactive) | > 100 µM (inactive) | > 100 µM | > 10 µM (inactive) | > 100 µM (inactive) | > 100 µM (inactive) |  |  | > 100 µM (inactive) | > 100 µM (inactive) | > 100 µM (inactive) | 
COC(=O)c1nn(C(=N)c2ccc(Cl)cc2)c2c1CCCCC2 | > 100 µM (inactive) | > 100 µM (inactive) |  | > 100 µM (inactive) | > 100 µM (inactive) | > 100 µM (inactive) | > 100 µM (inactive) | > 100 µM (inactive) | > 100 µM | > 100 µM (inactive) | > 100 µM (inactive) | > 100 µM (inactive) | > 100 µM (inactive) | > 100 µM (inactive) | > 100 µM (inactive) | > 100 µM (inactive) | > 100 µM (inactive) | 
O=C(/C=C/c1ccc([N+](=O)[O-])cc1)c1ccc(NCc2nc3ccccc3[nH]2)cc1 | 1.78 µM (inactive) | 2.96 µM (inactive) | 7.69 µM (inactive) | 11.5 µM (inactive) | 8.57 µM (inactive) | 13.5 µM (inactive) | 4.98 µM (inactive) | 2.22 µM (inactive) | 2.93 µM | 13 µM (inactive) | 7.24 µM (inactive) | 3.26 µM (inactive) | 2.61 µM (inactive) | 14.2 µM (inactive) | 4.48 µM (inactive) | 3.75 µM (inactive) | 1.75 µM (inactive) | 
Oc1ccc2ccccc2c1/N=N/c1ccsc1 | 24.9 µM (inactive) | > 100 µM (inactive) |  | > 100 µM (inactive) | > 100 µM (inactive) | > 100 µM (inactive) | > 100 µM (inactive) | > 100 µM (inactive) | 76.7 µM | > 100 µM (inactive) | > 100 µM (inactive) | > 100 µM (inactive) | > 100 µM (inactive) | > 100 µM (inactive) | > 100 µM (inactive) | > 100 µM (inactive) | > 100 µM (inactive) | 
Cc1c(/C=N/N(C)C)oc2c1cc(O)c1ncccc12 | 18.2 µM (inactive) | 3.96 µM (inactive) | 2.11 µM (inactive) | 3.25 µM (inactive) | 10.7 µM (inactive) | 7.24 µM (inactive) | 2.08 µM (inactive) | 4.5 µM (inactive) | 2.31 µM | 22.5 µM (inactive) | 25.8 µM (inactive) | 2.38 µM (inactive) | 14 µM (inactive) | 11.2 µM (inactive) | 14.3 µM (inactive) | 3.61 µM (inactive) | 13.1 µM (inactive) | 
CC(C)N(C(=O)C12C3C4C5(C(=O)O)C(C1C35I)C42C(=O)O)C(C)C (stereo not drawn) | > 100 µM (inactive) | > 100 µM (inactive) | > 100 µM (inactive) | > 100 µM (inactive) | > 100 µM (inactive) | > 100 µM (inactive) | > 100 µM (inactive) | > 100 µM (inactive) | > 100 µM | > 100 µM (inactive) | > 100 µM (inactive) | > 100 µM (inactive) | > 100 µM (inactive) | > 100 µM (inactive) | > 100 µM (inactive) | > 100 µM (inactive) | > 100 µM (inactive) | 
COc1ccc2c(c1)[n+]([O-])c(/C(C)=N/NC(=O)CC#N)c[n+]2[O-] | > 100 µM (inactive) | > 100 µM (inactive) | > 100 µM (inactive) | > 100 µM (inactive) | > 100 µM (inactive) | > 100 µM (inactive) | > 100 µM (inactive) | > 100 µM (inactive) | > 100 µM | > 100 µM (inactive) | > 100 µM (inactive) | > 100 µM (inactive) | > 100 µM (inactive) | > 100 µM (inactive) | > 100 µM (inactive) | > 100 µM (inactive) | > 100 µM (inactive) | 
O=C(n1c2ccccc2c2nnc(S)nc21)C(F)(F)F | > 100 µM (inactive) | > 100 µM (inactive) | > 100 µM (inactive) | > 100 µM (inactive) | > 100 µM (inactive) | > 100 µM (inactive) | > 100 µM (inactive) | > 100 µM (inactive) | > 100 µM | 60.5 µM (inactive) |  | > 100 µM (inactive) | > 100 µM (inactive) | > 100 µM (inactive) | > 100 µM (inactive) | > 100 µM (inactive) | > 100 µM (inactive) | 
CC1(C2CCC3(C)OC3C2)CO1 (stereo not drawn) | > 100 µM (inactive) | > 100 µM (inactive) | > 100 µM (inactive) | > 100 µM (inactive) | > 100 µM (inactive) | > 100 µM (inactive) | > 100 µM (inactive) | > 100 µM (inactive) |  | > 100 µM (inactive) |  | > 100 µM (inactive) | > 100 µM (inactive) | > 100 µM (inactive) | > 100 µM (inactive) | > 100 µM (inactive) | > 100 µM (inactive) | 
CCOP(=S)(OCC)Oc1ccc2c(c1)OC(=O)C1(Cl)C2(C)C2(Cl)C(=O)Oc3cc(OP(=S)(OCC)OCC)ccc3C12C (stereo not drawn) | 15.5 µM (inactive) | 19.2 µM (inactive) | 24.3 µM (inactive) | 17.7 µM (inactive) |  | 19 µM (inactive) | 17.9 µM (inactive) | 17.5 µM (inactive) | 20.4 µM | 16.5 µM (inactive) | 25.5 µM (inactive) | 10.4 µM (inactive) | 17.7 µM (inactive) | 22.6 µM (inactive) | 17.3 µM (inactive) | > 10 µM (inactive) | 6.35 µM (inactive) | 
COC(=O)C1=C(c2cc(OC)c(OC)c(OC)c2)OC(c2ccc(OC)c(OC)c2)C1 (stereo not drawn) | 29.2 µM (inactive) | 51.6 µM (inactive) | > 100 µM (inactive) | 61.1 µM (inactive) | 42.5 µM (inactive) | > 100 µM (inactive) | 38.9 µM (inactive) | 39.5 µM (inactive) | 43.5 µM | 79.8 µM (inactive) | 22.6 µM (inactive) |  | 54.7 µM (inactive) | > 100 µM (inactive) | 61.1 µM (inactive) | 78.2 µM (inactive) | 42 µM (inactive) | 
Cc1ccc(-n2c3nc(=O)n(C)c(=O)c-3nc3ccccc32)c(C)c1 | 8.18 µM (inactive) | 10.9 µM (inactive) | 8.67 µM (inactive) | 4.76 µM (inactive) |  | 18.7 µM (inactive) | 24.3 µM (inactive) | 3.49 µM (inactive) | 9.62 µM |  | > 10 µM (inactive) | 15.4 µM (inactive) | 5.16 µM (inactive) | 3.92 µM (inactive) | 15.1 µM (inactive) | 1.9 µM (inactive) | 15.8 µM (inactive) | 
COC(=O)CSc1[nH]c2nc(C)nc(Nc3ccccc3)c2c1C#N | > 10 µM (inactive) | > 10 µM (inactive) | > 10 µM (inactive) | > 10 µM (inactive) | 9.42 µM (inactive) |  |  |  | > 10 µM | > 10 µM (inactive) |  |  | > 10 µM (inactive) | > 10 µM (inactive) | > 10 µM (inactive) | > 10 µM (inactive) |  | > 10 µM (inactive)
COc1cc2c(cc1OC)C1Cc3ccc(OC)c(OC)c3C[N+]1([O-])CC2 (stereo not drawn) | > 100 µM (inactive) | > 100 µM (inactive) | > 100 µM (inactive) | > 100 µM (inactive) |  | > 100 µM (inactive) | > 100 µM (inactive) | > 100 µM (inactive) |  | > 100 µM (inactive) | > 100 µM (inactive) | > 100 µM (inactive) | > 100 µM (inactive) | > 100 µM (inactive) |  | > 100 µM (inactive) | > 100 µM (inactive) | 
CC12C(=CC(=O)CC1SCCS(=O)(=O)O)C(C#N)=C(N)N2c1ccc(Cl)c(Cl)c1 (stereo not drawn) | > 100 µM (inactive) | > 100 µM (inactive) | > 100 µM (inactive) |  | 30.6 µM (inactive) |  | > 100 µM (inactive) | 10 µM (inactive) | > 100 µM | > 100 µM (inactive) | > 100 µM (inactive) | 36 µM (inactive) | > 100 µM (inactive) |  | > 100 µM (inactive) | > 100 µM (inactive) | > 100 µM (inactive) | 
CN(C)C(=S)/N=c1\ss/c(=N\S(=O)(=O)c2ccccc2)n1N(C)C | > 100 µM (inactive) | > 100 µM (inactive) | > 100 µM (inactive) | > 100 µM (inactive) |  |  | > 100 µM (inactive) | > 100 µM (inactive) | > 100 µM | > 100 µM (inactive) | > 100 µM (inactive) | 4.92 µM (inactive) | > 100 µM (inactive) | > 100 µM (inactive) | > 100 µM (inactive) |  | > 100 µM (inactive) | 
